The record followed here is patent US10004701B2, “Methods and compositions for treating infection” (UNIVERSITY OF ROCHESTER, priority 2012, dated 2018).

Common to all, as to assay: AK assay 384-well format, Prestwick library screening
For one test, the system named is E. faecium. The class given is cell-based, Enterococcus faecium. The note with it: for fold induction at 50 µM: Enterococcus faecium, 3 h.
Test [1] relates to S. aureus strain USA300-0114. The class given is cell-based, Staphylococcus aureus. The note with it: for fold induction at 50 µM: Staphylococcus aureus, USA300, 3 h.
A further test relates to K. pneumoniae. The class given is cell-based, Klebsiella pneumoniae. The note with it: for fold induction at 50 µM: Klebsiella pneumoniae, 3 h.
In test [2] the test system is A. baumannii strain 98-37-09. The class given is cell-based, Acinetobacter baumannii. The note with it: for fold induction at 50 µM: Acinetobacter baumannii, 983709, 3 h.
Another test deals with P. aeruginosa. The class given is cell-based, Pseudomonas aeruginosa. The note with it: for fold induction at 50 µM: Pseudomonas aeruginosa, 3 h.
The subject of a further test is E. cloacae. The class given is cell-based, Enterobacter cloacae. The note with it: for fold induction at 50 µM: Enterobacter cloacae, 3 h.
The subject of the next test is E. coli. The class given is cell-based, Escherichia coli. The note with it: for fold induction at 50 µM: Escherichia coli, 3 h.

Each structure is given as a SMILES string. Where a name gives a salt, the structure may show the parent alone. Read-outs that look alike come from different tables or passages of the source.

For `COc1ccc2c(c1)c(CC(=O)O)c(C)n2C(=O)c1ccc(Cl)cc1` [Indomethacin], the fold induction at 50 µM with E. faecium (50 μM final drug concentration, 384-well format, cutoff for positive-scoring molecules 3-fold increase, read-out: AK-based Prestwick Library Screening Results, E. faecium (increase in extracellular AK activity)) came out at 0.9; in test [1] (50 μM final drug concentration, 384-well format, cutoff for positive-scoring molecules 3-fold increase, read-out: AK-based Prestwick Library Screening Results, S. aureus (increase in extracellular AK activity)), 0.6; with K. pneumoniae (50 μM final drug concentration, 384-well format, cutoff for positive-scoring molecules 3-fold increase, read-out: AK-based Prestwick Library Screening Results, K. pneumoniae (increase in extracellular AK activity)) it was 0.8; in test [2] (50 μM final drug concentration, 384-well format, cutoff for positive-scoring molecules 3-fold increase, read-out: AK-based Prestwick Library Screening Results, A. baumannii (increase in extracellular AK activity)) it was 1; in the test with P. aeruginosa (50 μM final drug concentration, 384-well format, cutoff for positive-scoring molecules 3-fold increase, read-out: AK-based Prestwick Library Screening Results, P. aeruginosa (increase in extracellular AK activity)) it was 0.9; with E. cloacae (50 μM final drug concentration, 384-well format, cutoff for positive-scoring molecules 3-fold increase, read-out: AK-based Prestwick Library Screening Results, E. cloacae (increase in extracellular AK activity)) it was 1.2. Moreover, in the test with E. coli (50 μM final drug concentration, 384-well format, cutoff for positive-scoring molecules 3-fold increase, read-out: AK-based Prestwick Library Screening Results, E. coli (increase in extracellular AK activity)), the fold induction at 50 µM was 0.9.
On to `CCN[C@H]1CN(CCCOC)S(=O)(=O)c2sc(S(N)(=O)=O)cc21` [Brinzolamide], for which the fold induction at 50 µM amounted to 1.4 in the test on E. faecium (planktonic E. faecium, 50 μM final drug concentration, cutoff for positive-scoring molecules 3-fold increase, read-out: AK-based Prestwick Library Screening Results, E. faecium (increase in extracellular AK activity)); 1 in test [1] (planktonic S. aureus, 50 μM final drug concentration, cutoff for positive-scoring molecules 3-fold increase, read-out: AK-based Prestwick Library Screening Results, S. aureus (increase in extracellular AK activity)); 0.9 in the test on K. pneumoniae (planktonic K. pneumoniae, 50 μM final drug concentration, cutoff for positive-scoring molecules 3-fold increase, read-out: AK-based Prestwick Library Screening Results, K. pneumoniae (increase in extracellular AK activity)); 1.1 in test [2] (planktonic A. baumannii, 50 μM final drug concentration, cutoff for positive-scoring molecules 3-fold increase, read-out: AK-based Prestwick Library Screening Results, A. baumannii (increase in extracellular AK activity)); 1.1 in the test with P. aeruginosa (planktonic P. aeruginosa, 50 μM final drug concentration, cutoff for positive-scoring molecules 3-fold increase, read-out: AK-based Prestwick Library Screening Results, P. aeruginosa (increase in extracellular AK activity)); 1.5 in the test on E. cloacae (planktonic E. cloacae, 50 μM final drug concentration, cutoff for positive-scoring molecules 3-fold increase, read-out: AK-based Prestwick Library Screening Results, E. cloacae (increase in extracellular AK activity)). The fold induction at 50 µM with E. coli (planktonic E. coli, 50 μM final drug concentration, cutoff for positive-scoring molecules 3-fold increase, read-out: AK-based Prestwick Library Screening Results, E. coli (increase in extracellular AK activity)) is 1.1.
Regarding `CCCCc1ccc(C(=O)O)nc1` [Fusaric acid], the fold induction at 50 µM was 1.1 with E. faecium (planktonic E. faecium, 50 μM final drug concentration, […], read-out: AK-based Prestwick Library Screening Results, E. faecium (increase in extracellular AK activity)); 0.9 in test [1] (planktonic S. aureus, 50 μM final drug concentration, […], read-out: AK-based Prestwick Library Screening Results, S. aureus (increase in extracellular AK activity)); 0.9 in the test with K. pneumoniae (planktonic K. pneumoniae, 50 μM final drug concentration, […], read-out: AK-based Prestwick Library Screening Results, K. pneumoniae (increase in extracellular AK activity)); 0.9 in test [2] (planktonic A. baumannii, 50 μM final drug concentration, […], read-out: AK-based Prestwick Library Screening Results, A. baumannii (increase in extracellular AK activity)); 1.1 in the test on P. aeruginosa (planktonic P. aeruginosa, 50 μM final drug concentration, […], read-out: AK-based Prestwick Library Screening Results, P. aeruginosa (increase in extracellular AK activity)); 1.2 with E. cloacae (planktonic E. cloacae, 50 μM final drug concentration, […], read-out: AK-based Prestwick Library Screening Results, E. cloacae (increase in extracellular AK activity)). Also, in the test with E. coli (planktonic E. coli, 50 μM final drug concentration, […], read-out: AK-based Prestwick Library Screening Results, E. coli (increase in extracellular AK activity)), the fold induction at 50 µM was found to be 0.8.
In the case of `COC(=O)C1=CO[C@@H](C)[C@H]2CN3CCc4c([nH]c5ccccc45)[C@@H]3C[C@H]12.Cl` [Ajmalicine hydrochloride], the “AK-based Prestwick Library Screening Results, E. faecium (increase in extracellular AK activity)” value in the test with E. faecium (planktonic E. faecium, 50 μM final drug concentration, cutoff for positive-scoring molecules 3-fold increase) stood at 0.9. Besides, the “AK-based Prestwick Library Screening Results, S. aureus (increase in extracellular AK activity)” value in test [1] (planktonic S. aureus, 50 μM final drug concentration, cutoff for positive-scoring molecules 3-fold increase) amounted to 0.5. Moreover, the “AK-based Prestwick Library Screening Results, K. pneumoniae (increase in extracellular AK activity)” value with K. pneumoniae (planktonic K. pneumoniae, 50 μM final drug concentration, cutoff for positive-scoring molecules 3-fold increase) is 0.7. In test [2] (planktonic A. baumannii, 50 μM final drug concentration, cutoff for positive-scoring molecules 3-fold increase), the “AK-based Prestwick Library Screening Results, A. baumannii (increase in extracellular AK activity)” value is listed as 0.9. Besides, the “AK-based Prestwick Library Screening Results, P. aeruginosa (increase in extracellular AK activity)” value in the test on P. aeruginosa (planktonic P. aeruginosa, 50 μM final drug concentration, cutoff for positive-scoring molecules 3-fold increase) is on record as 0.9. In addition, in the test on E. cloacae (planktonic E. cloacae, 50 μM final drug concentration, cutoff for positive-scoring molecules 3-fold increase), the “AK-based Prestwick Library Screening Results, E. cloacae (increase in extracellular AK activity)” value is recorded as 1.2. The “AK-based Prestwick Library Screening Results, E. coli (increase in extracellular AK activity)” value in the test on E. coli (planktonic E. coli, 50 μM final drug concentration, cutoff for positive-scoring molecules 3-fold increase) is on record as 0.9.
In the case of `C=CCN1CC[C@]23c4c5ccc(O)c4O[C@H]2C(=O)CC[C@@]3(O)[C@H]1C5` [Naloxone hydrochloride], the fold induction at 50 µM was determined as 0.8 in the test on E. faecium (read-out: AK-based Prestwick Library Screening Results, E. faecium (increase in extracellular AK activity)); 0.7 in test [1] (read-out: AK-based Prestwick Library Screening Results, S. aureus (increase in extracellular AK activity)); 0.6 with K. pneumoniae (read-out: AK-based Prestwick Library Screening Results, K. pneumoniae (increase in extracellular AK activity)); 0.8 in test [2] (read-out: AK-based Prestwick Library Screening Results, A. baumannii (increase in extracellular AK activity)); 0.8 with P. aeruginosa (read-out: AK-based Prestwick Library Screening Results, P. aeruginosa (increase in extracellular AK activity)); 1.1 in the test with E. cloacae (read-out: AK-based Prestwick Library Screening Results, E. cloacae (increase in extracellular AK activity)). Besides, the fold induction at 50 µM in the test on E. coli (read-out: AK-based Prestwick Library Screening Results, E. coli (increase in extracellular AK activity)) is 0.9.
In the case of `CN(C)C(=O)Oc1cccc([N+](C)(C)C)c1` [Neostigmine bromide], the fold induction at 50 µM was 1 in the test with E. faecium (50 μM final drug concentration, planktonic, […], read-out: AK-based Prestwick Library Screening Results, E. faecium (fold increase in extracellular AK activity)); 1.2 in test [1] (50 μM final drug concentration, planktonic, […], read-out: AK-based Prestwick Library Screening Results, S. aureus (fold increase in extracellular AK activity)); 1 in the test with K. pneumoniae (50 μM final drug concentration, planktonic, […], read-out: AK-based Prestwick Library Screening Results, K. pneumoniae (fold increase in extracellular AK activity)); 1.3 in test [2] (50 μM final drug concentration, planktonic, […], read-out: AK-based Prestwick Library Screening Results, A. baumannii (fold increase in extracellular AK activity)); 1.1 in the test with P. aeruginosa (50 μM final drug concentration, planktonic, […], read-out: AK-based Prestwick Library Screening Results, P. aeruginosa (fold increase in extracellular AK activity)); 1.2 in the test on E. cloacae (50 μM final drug concentration, planktonic, […], read-out: AK-based Prestwick Library Screening Results, E. cloacae (fold increase in extracellular AK activity)). For the same compound, the fold induction at 50 µM in the test with E. coli (50 μM final drug concentration, planktonic, […], read-out: AK-based Prestwick Library Screening Results, E. coli (fold increase in extracellular AK activity)) was determined as 1.3.
With `CN1CCC(=C2c3ccccc3Sc3ccccc32)CC1` [Pimethixene maleate], the fold induction at 50 µM with E. faecium (planktonic E. faecium, 50 μM final drug concentration, 384-well, […], read-out: AK-based Prestwick Library Screening Results: E. faecium (increase in extracellular AK activity)) was 1.1; in test [1] (planktonic S. aureus, 50 μM final drug concentration, 384-well, […], read-out: AK-based Prestwick Library Screening Results: S. aureus (increase in extracellular AK activity)) it was 0.9; in the test on K. pneumoniae (planktonic K. pneumoniae, 50 μM final drug concentration, 384-well, […], read-out: AK-based Prestwick Library Screening Results: K. pneumoniae (increase in extracellular AK activity)), 1.2; in test [2] (planktonic A. baumannii, 50 μM final drug concentration, 384-well, […], read-out: AK-based Prestwick Library Screening Results: A. baumannii (increase in extracellular AK activity)), 1.1; in the test on P. aeruginosa (planktonic P. aeruginosa, 50 μM final drug concentration, 384-well, […], read-out: AK-based Prestwick Library Screening Results: P. aeruginosa (increase in extracellular AK activity)) it was 1.1; in the test with E. cloacae (planktonic E. cloacae, 50 μM final drug concentration, 384-well, […], read-out: AK-based Prestwick Library Screening Results: E. cloacae (increase in extracellular AK activity)) it was 1.4. Besides, the fold induction at 50 µM in the test with E. coli (planktonic E. coli, 50 μM final drug concentration, 384-well, […], read-out: AK-based Prestwick Library Screening Results: E. coli (increase in extracellular AK activity)) came to 1.4.
